Test: Henry solubility constant Hcp at 298.15 K (mol/(m3 Pa))
Details: reference: Kondoh and Nakajima (1997)

| SMILES | Henry solubility constant Hcp |
| --- | --- |
| ClCC(Cl)(Cl)Cl [1,1,1,2-tetrachloroethane] | 0.0043 |
| CC(Cl)(Cl)Cl [1,1,1-trichloroethane] | 0.00067 |
| ClCC(Cl)Cl [1,1,2-trichloroethane] | 0.011 |
| C=C(Cl)Cl [1,1-dichloroethene] | 0.00046 |
| CC=C(Cl)Cl [1,1-dichloropropene] | 0.00054 |
| Clc1cccc(Cl)c1Cl [1,2,3-trichlorobenzene] | 0.015 |
| ClCC(Cl)CCl [1,2,3-trichloropropane] | 0.028 |
| Cc1ccc(C)c(C)c1 [1,2,4-trimethylbenzene] | 0.0023 |
| ClCC(Br)CBr (centres undefined) [1,2-dibromo-3-chloropropane] | 0.5 |
| CC(Cl)CCl (centres undefined) [1,2-dichloropropane] | 0.0043 |
| Cc1ccccc1C [1,2-dimethylbenzene] | 0.0019 |
| Cc1cc(C)cc(C)c1 [1,3,5-trimethylbenzene] | 0.0015 |
| Clc1cccc(Cl)c1 [1,3-dichlorobenzene] | 0.0038 |
| ClCCCCl [1,3-dichloropropane] | 0.011 |
| Cc1cccc(C)c1 [1,3-dimethylbenzene] | 0.0015 |
| Clc1ccc(Cl)cc1 [1,4-dichlorobenzene] | 0.0047 |
| Cc1ccc(C)cc1 [1,4-dimethylbenzene] | 0.0015 |
| Cc1ccc(Cl)cc1 [1-chloro-4-methylbenzene] | 0.0029 |
| Cc1ccc(C(C)C)cc1 [1-methyl-4-(1-methylethyl)-benzene] | 0.001 |
| CC(C)(Cl)Cl [2,2-dichloropropane] | 0.00071 |
| CC(C)(C)c1ccccc1 [(1,1-dimethylethyl)-benzene] | 0.00094 |
| CCC(C)c1ccccc1 (centres undefined) [(1-methylpropyl)-benzene] | 0.00075 |

| SMILES | Henry solubility constant Hcp |
| --- | --- |
| CC(C)c1ccccc1 [(2-propyl)-benzene] | 0.001 |
| c1ccccc1 [benzene] | 0.0018 |
| Brc1ccccc1 [bromobenzene] | 0.0049 |
| ClCBr [bromochloromethane] | 0.0078 |
| ClC(Cl)Br [bromodichloromethane] | 0.0054 |
| CCCCc1ccccc1 [butylbenzene] | 0.00091 |
| Clc1ccccc1 [chlorobenzene] | 0.003 |
| Cl/C=C\CCl [cis-1,3-dichloropropene] | 0.0063 |
| ClC(Br)Br [dibromochloromethane] | 0.0098 |
| BrCBr [dibromomethane] | 0.012 |
| ClCCl [dichloromethane] | 0.0037 |
| C=Cc1ccccc1 [ethenylbenzene] | 0.0038 |
| CCc1ccccc1 [ethylbenzene] | 0.0014 |
| ClC(Cl)=C(Cl)C(Cl)=C(Cl)Cl [hexachlorobutadiene] | 0.0007 |
| Cc1ccccc1 [methylbenzene] | 0.0017 |
| c1ccc2ccccc2c1 [naphthalene] | 0.017 |
| CCCc1ccccc1 [propylbenzene] | 0.0011 |
| ClC(Cl)=C(Cl)Cl [tetrachloroethene] | 0.00069 |
| ClC(Cl)(Cl)Cl [tetrachloromethane] | 0.00044 |
| Cl/C=C/CCl [trans-1,3-dichloropropene] | 0.01 |
| BrC(Br)Br [tribromomethane] | 0.014 |
| ClC=C(Cl)Cl [trichloroethene] | 0.0011 |
